Source: patent publication EP4810040A2, “INHIBITORS OF APOL1 AND METHODS OF USING SAME” (priority 2020, dated 2022)
Where two headings read alike, the source gives them in different places.

Target: T1, APOL1 G1 (Homo sapiens, UniProt O14791, I384M/S342G)
T1 sequence (O14791 28-398 S342G/I384M): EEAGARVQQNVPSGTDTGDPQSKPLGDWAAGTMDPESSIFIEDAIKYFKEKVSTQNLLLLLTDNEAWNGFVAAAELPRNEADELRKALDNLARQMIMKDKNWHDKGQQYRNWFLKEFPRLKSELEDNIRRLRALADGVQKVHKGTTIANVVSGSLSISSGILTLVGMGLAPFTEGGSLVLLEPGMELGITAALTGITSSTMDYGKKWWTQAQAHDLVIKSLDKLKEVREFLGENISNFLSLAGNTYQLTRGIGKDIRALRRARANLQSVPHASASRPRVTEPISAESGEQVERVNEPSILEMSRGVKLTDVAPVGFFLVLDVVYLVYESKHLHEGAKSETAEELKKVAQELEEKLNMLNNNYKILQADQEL
Test: MultiTox-Fluor Multiplex Cytotoxicity Assay, tet-inducible APOL1 G1 T-REx-HEK293 cells
Assay type: cell-based
Design: expressed in transfected cells; host or cells: T-REx HEK293, clone G1 DC3.25 (pAAVS1-Puro-APOL1 G1)
Conditions: for IC90: HEK293, Multi-Tox Assay, APOL1 variant (G0/G1/G2) of the HEK293 cells not given, read-out: Multi-Tox Assay IC90; for Emax: read-out: Multi-Tox Assay Max Activity (%)
Procedure, shortened: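 T-REx-HEK293 cells carrying tet-inducible APOL1 G1 induced with 50 ng/mL tet alongside compound (top 10 µM, 10-point 3-fold, duplicate) for 24 h at 37 °C. MultiTox-Fluor dead/live protease fluorescence ratio read after 30 min; normalized to no-tet (100% viability) and tet-treated (0%) controls, then curve-fitted.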

[1] = Multi-Tox Assay, APOL1 variant not given

Row | SMILES | IC90 [µM] | Multi-Tox Assay Max Activity (%) [1] [%] | Emax [1] [%] | Emax [%]
1 | CC1COC2(C[C@@H](c3cn(C)nn3)N[C@@H](C)C2)c2cc(C(F)(F)F)sc21 (stereo partly drawn) [Compound 14] | 0.05 to 0.5 | 99.3 | – | –
2 | C[C@H]1C[C@@]2(C[C@@H](c3cn(C)nn3)N1)OCCc1c2sc(C(F)(F)F)c1CO [Compound 17, [(2'S,6'S,7S)-2'-methyl-6'-(1-methyltriazol-4-yl)-2-(trifluoromethyl)spiro[4,5-dihydrothieno[2,3-c]pyran-7,4'-piperidine]-3-yl]methanol] | < 0.05 | – | 100 | –
3 | C[C@H]1C[C@@]2(C[C@@H](c3cnn(CC(=O)N(C)C)c3)N1)OCCc1cc(Cl)sc12 [Compound 18, 2-[4-[(2S, 6S)-2-chloro-6'-methyl-spiro[4,5-dihydrothieno[2,3-c]pyran-7,4'-piperidine]-2'-yl]pyrazol-1-yl]-N,N-dimethyl-acetamide] | < 0.05 | – | 99.5 | –
4 | C[C@H]1C[C@@]2(C[C@@H](c3cnn(C)c3)N1)OCCc1cc(Cl)sc12 [Compound 19, (2S)-2-chloro-2'-methyl-6'-(1-methylpyrazol-4-yl)spiro[4,5-dihydrothieno[2,3-c]pyran-7,4'-piperidine]] | < 0.05 | – | 99.3 | –
5 | CC1CC2(CC(c3cccc(C#N)c3)N1)OCCc1cc(Cl)sc12 (stereo not drawn) [Compound 24] | < 0.05 | 100.0 | – | –
6 | CNC(=O)c1cccc(C2CC3(CC(C)N2)OCCc2cc(Cl)sc23)c1 (stereo not drawn) [Compound 27] | < 0.05 | 100.3 | – | –
7 | CC1CC2(CC(c3ccncc3)N1)OCCc1cc(Cl)sc12 (stereo not drawn) [Compound 30] | < 0.05 | – | – | –
8 | CC1CC2(CC(c3cc(F)cc(C#N)c3)N1)OCCc1cc(Cl)sc12 (stereo not drawn) [Compound 33] | < 0.05 | 98.7 | – | –
9 | COc1ccc(C2CC3(CC(C)N2)OCCc2cc(Cl)sc23)nc1 (stereo not drawn) [Compound 34] | < 0.05 | – | – | –
10 | CC1CC2(CC(c3ccc4[nH]ncc4c3)N1)OCCc1cc(Cl)sc12 (stereo not drawn) [Compound 35] | < 0.05 | 99.3 | – | –
11 | CC(=O)Nc1ccc(C2CC3(CC(C)N2)OCCc2cc(Cl)sc23)cn1 (stereo not drawn) [Compound 37] | < 0.05 | – | 99.7 | –
12 | CC1CC2(CC(c3cnn(C)n3)N1)OCCc1cc(Cl)sc12 (stereo not drawn) [Compound 38] | < 0.05 | – | 100 | –
13 | CC1CC2(CC(c3ccc4c(c3)OCC(=O)N4)N1)OCCc1cc(Cl)sc12 (stereo not drawn) [Compound 39] | < 0.05 | – | 99.7 | –
14 | CC1CC2(CC(c3cnn(-c4cccnc4)c3)N1)OCCc1cc(Cl)sc12 (stereo not drawn) [Compound 40] | < 0.05 | 100.0 | – | –
15 | CNC(=O)c1ccc(C2CC3(CC(C)N2)OCCc2cc(Cl)sc23)cc1 (stereo not drawn) [Compound 41] | < 0.05 | 99.7 | – | –
16 | Cc1nn(C)c2ncc(C3CC4(CC(C)N3)OCCc3cc(Cl)sc34)cc12 (stereo not drawn) [Compound 42] | < 0.05 | 99.7 | – | –
17 | Cc1cc(C2CC3(CC(C)N2)OCCc2cc(Cl)sc23)ncn1 (stereo not drawn) [Compound 43] | < 0.05 | 100.0 | – | –
18 | CC1CC2(CC(c3cncnc3)N1)OCCc1cc(Cl)sc12 (stereo not drawn) [Compound 45] | < 0.05 | 100.0 | – | –
19 | CC1CC2(CC(c3cnn(CCS(C)(=O)=O)c3)N1)OCCc1cc(Cl)sc12 (stereo not drawn) [Compound 46] | < 0.05 | – | – | –
20 | C[C@H]1C[C@@]2(C[C@@H](c3ccc(O)c(F)c3)N1)OCCc1cc(Cl)sc12 [Compound 51] | < 0.05 | 99.7 | – | –
21 | C[C@H]1C[C@@]2(C[C@@H](c3cnc(-c4cnn(C)c4)nc3)N1)OCCc1cc(Cl)sc12 [Compound 61] | < 0.05 | – | 99.7 | –
22 | C[C@H]1C[C@@]2(C[C@@H](c3ccc(O)nn3)N1)OCCc1cc(Cl)sc12 [Compound 86] | < 0.05 | – | 99.5 | –
23 | CCc1cc([C@@H]2C[C@]3(C[C@H](C)N2)OCCc2cc(Cl)sc23)on1 [Compound 91] | < 0.05 | – | 100 | –

Row | SMILES | IC90 [µM] | Multi-Tox Assay Max Activity (%) [1] [%] | Emax [1] [%] | Emax [%]
24 | C[C@H]1C[C@@]2(C[C@@H](c3cnn(C4CCS(=O)(=O)C4)c3)N1)OCCc1cc(Cl)sc12 (stereo partly drawn) [Compound 97] | < 0.05 | – | – | 99
25 | C[C@H]1C[C@@]2(C[C@@H](c3cc(C4CCOCC4)[nH]n3)N1)OCCc1cc(Cl)sc12 [Compound 114] | 0.05 to 0.5 | 99.7 | – | –
26 | C[C@H]1C[C@@]2(C[C@@H](c3cc(C(F)(F)F)[nH]n3)N1)OCCc1cc(Cl)sc12 [Compound 119] | 0.05 to 0.5 | 99.7 | – | –
27 | CC1CC2(CC(c3cn(CC4CC4)nn3)N1)OCCc1cc(Cl)sc12 (stereo not drawn) [Compound 122] | 0.05 to 0.5 | 99.7 | – | –
28 | C[C@H]1C[C@@]2(C[C@@H](c3cccn4ccnc34)N1)OCCc1cc(Cl)sc12 [Compound 143] | 0.05 to 0.5 | 98.0 | – | –
29 | C[C@H]1C[C@@]2(C[C@@H](c3cn(C)nn3)N1)OC[C@@H](O)c1cc(Cl)sc12 [Compound 174, (2'S, 4S, 6'S, 7S)-2-chloro-2'-methyl-6'-(1-methyltriazol-4-yl)spiro[4,5-dihydrothieno[2,3-c]pyran-7,4'-piperidine]-4-ol] | < 0.05 | – | 99.8 | –
30 | C[C@H]1C[C@@]2(C[C@@H](c3cn(C)nn3)N1)OC[C@H](O)c1cc(Cl)sc12 [Compound 177, (2'S,4R,6'S,7S)-2-chloro-2'-methyl-6'-(1-methyltriazol-4-yl)spiro[4,5-dihydrothieno[2,3-c]pyran-7,4'-piperidine]-4-ol] | < 0.05 | – | 100 | –
31 | C[C@H]1C[C@@]2(C[C@@H](c3cn(C)nn3)N1)OC[C@H](O)c1cc(C(F)(F)F)sc12 [Compound 180] | < 0.05 | – | 99.8 | –
32 | C[C@H]1C[C@@]2(C[C@@H](c3cn(C)nn3)N1)OC[C@@H](O)c1cc(C(F)(F)F)sc12 [Compound 181, (2S,4S,4'S,6S)-2-methyl-6-(1-methyl-1H-1,2,3-triazol-4-yl)-2'-(trifluoromethyl)-4',5'-dihydrospiro[piperidine-4, 7'-thieno[2,3-c]pyran]-4'-ol] | < 0.05 | – | 99.8 | –
33 | C[C@H]1C[C@@]2(C[C@@H](c3cn(C)nn3)N1)OC[C@@H](O)c1sc(Cl)cc12 [Compound 182] | < 0.05 | – | 100 | –
34 | C[C@H]1C[C@@]2(C[C@@H](c3cn(C)nn3)N1)OCC(F)(F)c1cc(Cl)sc12 [Compound 183, (2'S, 6'S, 7S)-2-chloro-4,4-difluoro-2'-methyl-6'-(1-methyltriazol-4-yl)spiro[5H-thieno[2,3-c]pyran-7,4'-piperidine]] | < 0.05 | – | 99.5 | –
35 | Cn1cc(C2CC3(CC(C4CCC4)N2)OCCc2cc(Cl)sc23)nn1 (stereo not drawn) [Compound 189] | > 0.5 | – | 97 | –
36 | COCC1CC2(CC(c3cn(C)nn3)N1)OCCc1cc(Cl)sc12 (stereo not drawn) [Compound 190] | 0.05 to 0.5 | – | 99 | –
37 | CC(C)C1CC2(CC(c3cn(C)nn3)N1)OCCc1cc(C(F)(F)F)sc12 (stereo not drawn) [Compound 191] | 0.05 to 0.5 | – | 99.7 | –
38 | Cn1cc(C2CC3(CC(C4CCC4)N2)OCCc2cc(C(F)(F)F)sc23)nn1 (stereo not drawn) [Compound 192] | 0.05 to 0.5 | – | 99 | –
39 | COCC1CC2(CC(c3cn(C)nn3)N1)OCCc1cc(C(F)(F)F)sc12 (stereo not drawn) [Compound 193] | 0.05 to 0.5 | – | 99 | –
40 | C[C@H]1CC2(C[C@H](C)N1)OCCc1sc(C(F)(F)F)cc12 (stereo partly drawn) [Compound 195] | > 0.5 | – | 76 | –
41 | C[C@H]1C[C@@]2(C[C@@H](CC3CCOCC3)N1)OCCc1cc(Cl)sc12 [Compound 219, (2S,6R)-2-chloro-2'-methyl-6'-(tetrahydropyran-4-ylmethyl)spiro[4,5-dihydrothieno[2,3-c]pyran-7,4'-piperidine]] | > 0.5 | – | 88.7 | –
42 | C[C@H]1C[C@@]2(C[C@@H](C3CC3)N1)OCC(O)c1cc(Cl)sc12 (stereo partly drawn) [Compound 220, (2'S,6'S,7S)-2-chloro-2'-cyclopropyl-6'-methyl-spiro[4,5-dihydrothieno[2,3-c]pyran-7,4'-piperidine]-4-ol] | < 0.05 | – | 99.3 | –
43 | C#C[C@@H]1C[C@]2(C[C@H](C)N1)OCCc1cc(Cl)sc12 [Compound 221, (2S,4S,6S)-2'-chloro-2-ethynyl-6-methyl-4',5'-dihydrospiro[piperidine-4,7'-thieno[2,3-c]pyran]] | 0.05 to 0.5 | – | 99 | –
44 | C#C[C@@H]1C[C@]2(C[C@H](C)N1)OC[C@@H](O)c1cc(Cl)sc12 [Compound 222, (2'S,4S,6'S,7S)-2-chloro-2'-ethynyl-6'-methyl-spiro[4,5-dihydrothieno[2,3-c]pyran-7,4'-piperidine]-4-ol] | 0.05 to 0.5 | – | 100 | –
45 | C#C[C@@H]1C[C@]2(C[C@H](C)N1)OCC(F)(F)c1cc(Cl)sc12 [Compound 223, (2'S,6'S,7S)-2-chloro-2'-ethynyl-4,4-difluoro-6'-methyl-spiro[5H-thieno[2,3-c]pyran-7,4'-piperidine]] | > 0.5 | – | 93 | –
